Assay results: patent publication US12673961B2 (Agios Pharmaceuticals, Inc., priority 2022, dated 2026)

What follows are molecules tested against T1, human PAH with the R408W mutation (Homo sapiens, UniProt P00439, R408W) (assay: Cell Based Phenylalanine Flux Assay). Details: A375 cells expressing human R408W PAH; 24 hrs compound incubation; 13C-Tyrosine by LC-MS; average where tested multiple times; read-out: AC50.
T1 construct: expressed in transfected cells
T1 sequence (P00439 1-452 R408W): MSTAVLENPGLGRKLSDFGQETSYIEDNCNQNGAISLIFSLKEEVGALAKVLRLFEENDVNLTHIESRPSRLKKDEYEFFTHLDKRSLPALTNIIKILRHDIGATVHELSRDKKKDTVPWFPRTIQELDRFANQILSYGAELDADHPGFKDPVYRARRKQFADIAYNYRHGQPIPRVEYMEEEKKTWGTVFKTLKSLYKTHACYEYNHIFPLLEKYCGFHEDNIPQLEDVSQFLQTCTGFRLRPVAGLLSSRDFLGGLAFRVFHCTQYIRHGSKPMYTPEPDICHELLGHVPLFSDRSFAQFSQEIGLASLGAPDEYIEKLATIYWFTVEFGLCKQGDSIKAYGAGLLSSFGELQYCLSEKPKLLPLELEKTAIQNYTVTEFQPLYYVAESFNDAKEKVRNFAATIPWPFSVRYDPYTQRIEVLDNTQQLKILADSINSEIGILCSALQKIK
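Also: Ten-point dose curve from 2-fold serial dilutions, run in duplicate at 0.5% DMSO final, tracer step used 20 µM sepiapterin and 800 µM labeled phenylalanine.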

| AC50 [nM] | Structure (SMILES) |
| --- | --- |
| 1000 to 5000 | O=C(c1nnc(-c2cnccn2)o1)N1CCc2[nH]cnc2[C@@H]1c1cc2c(Cl)cccn2n1 [Example 1333, (R)-(4-(4-chloropyrazolo [1,5-a]pyridin-2-yl)-6,7-dihydro-1H-imidazo[4,5-c]pyridin-5(4H)-yl)(5-(pyrazin-2-yl)-1,3,4-oxadiazol-2-yl)methanone] |
| 500 to 1000 | O=C(c1nnc(-c2cccnc2)o1)N1CCc2[nH]cnc2[C@H]1c1cc2cccc(C(F)(F)F)n2n1 [Example 1340, (S)-(5-(pyridin-3-yl)-1,3,4-oxadiazol-2-yl)(4-(7-(trifluoromethyl)pyrazolo [1,5-a]pyridin-2-yl)-6,7-dihydro-1H-imidazo[4,5-c]pyridin-5(4H)-yl)methanone] |
| 1000 to 5000 | O=C(c1nnc(-c2cccnc2)o1)N1CCc2[nH]cnc2[C@@H]1c1cc2cccc(C(F)(F)F)n2n1 [Example 1341, (R)-(5-(pyridin-3-yl)-1,3,4-oxadiazol-2-yl)(4-(7-(trifluoromethyl)pyrazolo [1,5-a]pyridin-2-yl)-6,7-dihydro-1H-imidazo[4,5-c]pyridin-5(4H)-yl)methanone] |
| 500 to 1000 | O=C(c1nnc(-c2cccnc2)o1)N1CCc2[nH]cnc2[C@H]1c1cc2ccccn2n1 [Example 1346, (S)-(4-(pyrazolo[1,5-a]pyridin-2-yl)-6,7-dihydro-1H-imidazo[4,5-c]pyridin-5(4H)-yl)(5-(pyridin-3-yl)-1,3,4-oxadiazol-2-yl)methanone] |
| > 5000 | Cc1c(-c2nnc(C(=O)N3CCc4[nH]cnc4[C@@H]3c3cc4c(C(F)F)cccn4n3)o2)cnn1C [Example 1349] |
| < 500 | CC(C)(F)c1nnc(C(=O)N2CCc3[nH]cnc3[C@H]2c2cc3c(C(F)F)cccn3n2)o1 [Example 1350, (S)-(4-(4-(difluoromethyl)pyrazolo[1,5-a]pyridin-2-yl)-6,7-dihydro-1H-imidazo [4,5-c]pyridin-5(4H)-yl)(5-(2-fluoropropan-2-yl)-1,3,4-oxadiazol-2-yl)methanone] |
| > 5000 | Cn1ccc(-c2nnc(C(=O)N3CCc4[nH]cnc4[C@@H]3c3cc4c(C(F)F)cccn4n3)o2)n1 [Example 1353, (R)-(4-(4-(difluoromethyl)pyrazolo[1,5-a]pyridin-2-yl)-6,7-dihydro-1H-imidazo [4,5-c]pyridin-5(4H)-yl)(5-(1-methyl-1H-pyrazol-3-yl)-1,3,4-oxadiazol-2-yl)methanone] |
| < 500 | Cc1ncccc1-c1nnc(C(=O)N2CCc3[nH]cnc3[C@H]2c2cc3c(Cl)cccn3n2)o1 [Example 1356, (S)-(4-(4-chloropyrazolo [1,5-a]pyridin-2-yl)-6,7-dihydro-1H-imidazo[4,5-c]pyridin-5(4H)-yl)(5-(2-methylpyridin-3-yl)-1,3,4-oxadiazol-2-yl)methanone] |
| > 5000 | Cc1ncccc1-c1nnc(C(=O)N2CCc3[nH]cnc3[C@@H]2c2cc3c(Cl)cccn3n2)o1 [Example 1357, (R)-(4-(4-chloropyrazolo [1,5-a]pyridin-2-yl)-6,7-dihydro-1H-imidazo[4,5-c]pyridin-5(4H)-yl)(5-(2-methylpyridin-3-yl)-1,3,4-oxadiazol-2-yl)methanone] |
| 500 to 1000 | O=C(c1nnc(-c2cnccn2)o1)N1CCc2[nH]cnc2[C@H]1c1cc2cccc(C(F)(F)F)n2n1 [Example 1361, (S)-(5-(pyrazin-2-yl)-1,3,4-oxadiazol-2-yl)(4-(7-(trifluoromethyl)pyrazolo [1,5-a]pyridin-2-yl)-6,7-dihydro-1H-imidazo[4,5-c]pyridin-5(4H)-yl)methanone] |
| 500 to 1000 | O=C(c1nnc(-c2cnccn2)o1)N1CCc2[nH]cnc2[C@H]1c1cc2ccccn2n1 [Example 1362, (S)-(5-(pyrazin-2-yl)-1,3,4-oxadiazol-2-yl)(4-(pyrazolo[1,5-a]pyridin-2-yl)-6,7-dihydro-1H-imidazo[4,5-c]pyridin-5(4H)-yl)methanone] |
| < 500 | Cc1ncccc1-c1nnc(C(=O)N2CCc3[nH]cnc3[C@H]2c2cc3ccccn3n2)o1 [Example 1364] |
